Values after ≈ are worked out from the molar mass of the structure shown. Structures can show the parent of a compound that is named as a salt.
Experiments:
[1] = tested on: super sensitive Gram-negative Escherichia coli (E. coli) BAS849; experiment: Antibacterial activity, microbroth dilution MIC, E. coli BAS849; format: cell-based; conditions: Escherichia coli; E. coli BAS849, microbroth dilution; read-out: MIC, BAS849
[2] = tested on: control Gram-negative E. coli 25922 strain; experiment: Antibacterial activity, microbroth dilution MIC, E. coli 25922; format: cell-based, Escherichia coli; conditions: Escherichia coli; E. coli 25922, microbroth dilution; read-out: MIC, 25922
[3] = tested on: Gram-positive Staphylococcus aureus (S. aureus) 29213; experiment: Antibacterial activity, microbroth dilution MIC, S. aureus 29213; format: cell-based; conditions: Staphylococcus aureus; S. aureus 29213, microbroth dilution; read-out: MIC, 29213
[4] = tested on: quinolone resistant E. coli LZ3111; experiment: Antibacterial activity, MIC, quinolone resistant E. coli LZ3111; format: cell-based, Escherichia coli; conditions: Escherichia coli, read-out: MIC, LZ3111
Excerpt: (§1) The antibacterial activity from a microbroth dilution method may be presented as the minimum inhibitory concentration (MIC in […]). The MIC value is the lowest concentration of a drug which prevents macroscopically visible bacterial growth under test conditions.
Mutations in these regions are known to confer a high level resistance to the quinolone class of antibiotics.

[5] = tested on: E. coli ELZ4251 (MDR clinical isolate); experiment: Antibacterial activity, MIC, MDR E. coli ELZ4251; format: cell-based, Escherichia coli; conditions: E. coli ELZ4251, MDR clinical isolate; for MIC: Escherichia coli, read-out: MIC ELZ4251
[6] = tested on: Acinetobacter baumannii (A. baumannii) BAA747; experiment: Antibacterial activity, MIC, A. baumannii BAA747; format: cell-based; conditions: Acinetobacter baumannii; A. baumannii BAA747; read-out: MIC BAA747
[7] = tested on: Klebsiella pneumoniae (K. pneumoniae) 35657; experiment: Antibacterial activity, MIC, K. pneumoniae 35657; format: cell-based; conditions: Klebsiella pneumoniae
[8] = tested on: resistant A. baumannii MXX2240 (MDR clinical isolate); experiment: Antibacterial activity, MIC, resistant A. baumannii MXX2240; format: cell-based, Acinetobacter baumannii; conditions: resistant A. baumannii MMX2240, MDR clinical isolate; for MIC: Acinetobacter baumannii, read-out: MIC MMX2240
[9] = tested on: resistant K. pneumoniae MXX1232 (MDR clinical isolate); experiment: Antibacterial activity, MIC, resistant K. pneumoniae MXX1232; format: cell-based, Klebsiella pneumoniae; conditions: Klebsiella pneumoniae; resistant K. pneumoniae MMX1232, MDR clinical isolate; read-out: MIC MMX1232
[10] = tested on: Pseudomonas aeruginosa (P. aeruginosa) 27853; experiment: Antibacterial activity, MIC, P. aeruginosa 27853; format: cell-based; conditions: P. aeruginosa 27853; for MIC: Pseudomonas aeruginosa, read-out: MIC 27853
Excerpt: as §1
Antibacterial activity of test compounds against the Gram-negative bacterium Pseudomonas aeruginosa (P. aeruginosa) 27853 is shown in Table 5.

[11] = tested on: Moraxella catarrhalis (M. catarrhalis) 25238; experiment: Antibacterial activity, MIC, M. catarrhalis 25238; format: cell-based; conditions: M. catarrhalis 25238; for MIC: Moraxella catarrhalis, read-out: MIC 25238
various organisms = experiment: Microdilution checkerboard method, combination with ciprofloxacin (MIC and FIC); format: cell-based; conditions: single agent
[12] = tested on: E. coli ELZ4000 (MDR clinical isolate); experiment: Antibacterial activity, MIC, MDR E. coli ELZ4000; format: cell-based, Escherichia coli; conditions: Escherichia coli; E. coli ELZ4000, MDR clinical isolate; read-out: MIC ELZ4000
[13] = tested on: Haemophilus influenzae (H. influenzae) 49247; experiment: Antibacterial activity, MIC, H. influenzae 49247; format: cell-based; conditions: Haemophilus influenzae; H. influenzae 49247; read-out: MIC 49247
In short: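 A microbroth dilution method gave the minimum inhibitory concentration for each compound against H. influenzae 49247, a Gram-negative bacterium. MIC means the smallest concentration of drug at which no macroscopically visible bacterial growth appears under the conditions of the test.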

[14] = tested on: Neisseria meningitidis (N. meningitidis) 13090; experiment: Antibacterial activity, MIC, N. meningitidis 13090; format: cell-based; conditions: Neisseria meningitidis; N. meningitidis 13090; read-out: MIC 13090
[15] = Acinetobacter baumannii, A. baumannii (MDR)
[16] = Acinetobacter baumannii, BAA747, A. baumannii BAA747
[17] = Escherichia coli, E. coli 25922
[18] = Klebsiella pneumoniae, K. pneumoniae 35657
[19] = Pseudomonas aeruginosa, P. aeruginosa 27853
[20] = Staphylococcus aureus, S. aureus 29213
[21] = Staphylococcus aureus, S. aureus (MDR)

Compound | MIC [1] [µg/mL] | MIC [2] [µg/mL] | MIC [3] [µg/mL] | MIC [4] [µg/mL] | MIC [6] [µg/mL] | MIC [7] [µg/mL] | MIC [9] [µg/mL] | MIC (various organisms; [15]) [µg/mL] | MIC (various organisms; [16]) [µg/mL] | MIC (various organisms; Escherichia coli, E. coli 3111) [µg/mL] | MIC (various organisms; [17]) [µg/mL] | MIC (various organisms; [18]) [µg/mL] | MIC (various organisms; [19]) [µg/mL] | MIC [12] [µg/mL] | MIC [5] [µg/mL] | MIC [8] [µg/mL] | MIC [10] [µg/mL] | MIC [13] [µg/mL] | MIC [11] [µg/mL] | MIC [14] [µg/mL] | other results
CCc1c(-c2ccc(N3C[C@@H]4[C@@H](N)[C@@H]4C3)cc2)[nH]c(=O)c(C(=O)O)c1O [Cpd 269, 6-{4-[(1R,5S,6s)-6-amino-3-azabicyclo[3.1.0]hex-3-yl]phenyl}-5-ethyl-4-hydroxy-2-oxo-1,2-dihydropyridine-3-carboxylic acid hydrochloride] | < 1 | < 1 | 3.5 to 12.5 | 3.5 to 12.5 | < 1 | < 1 | 12.5 to 150 | 12.5 | 0.39 | 3.1 | 0.19 | 0.39 | 1.6 |  |  |  |  |  |  |  | MIC ELZ4251 ([5]; hydrochloride): * (an MIC value between >12.5 μg/mL and ≦150 μg/mL is indicated by a single star (*)); MIC MMX2240 ([8]; hydrochloride): ** (an MIC value between >3.5 μg/mL and ≦12.5 μg/mL is indicated by two stars (**)); MIC 27853 ([10]; hydrochloride): *** (an MIC value between >1.0 μg/mL and ≦3.5 μg/mL is indicated by three stars (***)); MIC 25238 ([11]; hydrochloride): **** (an MIC value of ≦1.0 μg/mL is indicated by four stars (****)); MIC (various organisms; [20]): 3.12 µg/mL; MIC (various organisms; [21]): 6.2 µg/mL
Cc1c(-c2ccc(N(C)C)cc2)[nH]c(=O)c(C(=O)O)c1O [Cpd 5, 6-[4-(dimethylamino)phenyl]-4-hydroxy-5-methyl-2-oxo-1,2-dihydropyridine-3-carboxylic acid] | < 1 | 12.5 to 150 (≈ 43.4 to 520 µM) | 12.5 to 150 (≈ 43.4 to 520 µM) | 1 to 3.5 (≈ 3.47 to 12.1 µM) | 3.5 to 12.5 (≈ 12.1 to 43.4 µM) | 12.5 to 150 (≈ 43.4 to 520 µM) | 12.5 to 150 (≈ 43.4 to 520 µM) |  |  |  |  |  |  | 3.5 to 12.5 (≈ 12.1 to 43.4 µM) | 1 to 3.5 (≈ 3.47 to 12.1 µM) | < 1 | 12.5 to 150 (≈ 43.4 to 520 µM) | 1 to 3.5 (≈ 3.47 to 12.1 µM) | 1 to 3.5 (≈ 3.47 to 12.1 µM) | < 1 | 
O=C(O)c1cn(C2CC2)c2cc(N3CCNCC3)c(F)cc2c1=O [Cipro, ciprofloxacin, reference compound] |  |  |  |  |  |  |  | 125 | 0.098 | 125 | 0.013 | 0.01 | 0.2 |  |  |  |  |  |  |  | MIC (various organisms; [20]): 0.39 µg/mL; MIC (various organisms; [21]): 31.2 µg/mL
CCc1cc(C(=O)O)c(=O)[nH]c1-c1ccc(N(C)C)cc1 [Cpd 88, 6-[4-(dimethylamino)phenyl]-5-ethyl-2-oxo-1,2-dihydropyridine-3-carboxylic acid] | < 1 | < 1 | 3.5 to 12.5 (≈ 12.2 to 43.7 µM) | 12.5 to 150 (≈ 43.7 to 524 µM) | < 1 | < 1 | 12.5 to 150 (≈ 43.7 to 524 µM) |  |  |  |  |  |  | 12.5 to 150 (≈ 43.7 to 524 µM) | 12.5 to 150 (≈ 43.7 to 524 µM) | 12.5 to 150 (≈ 43.7 to 524 µM) | 3.5 to 12.5 (≈ 12.2 to 43.7 µM) | 3.5 to 12.5 (≈ 12.2 to 43.7 µM) | < 1 | < 1 | 
CCc1c(-c2ccc(N3CCC(N4CCCC4)C3)cc2)[nH]c(=O)c(C(=O)O)c1O.Cl (stereo not drawn) [Cpd 257, 6-[4-(1,3′-bipyrrolidin-1′-yl)phenyl]-5-ethyl-4-hydroxy-2-oxo-1,2-dihydropyridine-3-carboxylic acid hydrochloride] | < 1 | < 1 | 12.5 to 150 | 3.5 to 12.5 | 1 to 3.5 | 1 to 3.5 | 12.5 to 150 |  |  |  |  |  |  | 3.5 to 12.5 | 1 to 3.5 | 12.5 to 150 | 12.5 to 150 | 1 to 3.5 | 1 to 3.5 | < 1 | 

Source: patent US9650395B2, “Antibacterial compounds and methods for use” (PTC Therapeutics, Inc., priority 2011, dated 2017)
